Entries after “also recorded” stand apart in the source; their conditions may differ.
Key:
[1] = system: L1 ORF2 reverse transcriptase activity; assay: Alu cDNA formation in Oryzomys RPE cells with enforced L1 ORF2 expression (Alu-specific qPCR of cytoplasmic fractions); assay type: cell-based, rat L1 ORF2 in Oryzomys palustris RPE cells; details: high-dose
Procedure: Subretinal and intravitreous injections. Subretinal injections (1 μl for mice, 3 μl for rat) or intravitreous injections (0.5 μl for mice, 2 μl for rat) in mice or rat were performed using a 35-gauge needle (Ito Co. Fuji, Japan). In vivo transfection of Alu RNA or mutant Alu RNA (3.6-300 ng per eye); Alu complementary DNA (cDNA; 0.0036-90 ng per eye); Alu reverse sequence cDNA (3.6-90 ng per eye); or 7SL cDNA (3.6-90 ng per eye) was performed using 10% NEUROPORTER™ transfection reagent (Genlantis, San Diego, Calif., United States of America) as previously described (Kaneko et al., 2011; Tarallo et al., 2012). 3TC, TM-3TC, Cpep-3TC, Cpep, PA-4 3TC, EFV, DLV, or NVP (50 μM/1 μl or 500 μM/1 μl) were administered by intravitreous injection (Mandal et al., 2011; Nasrolahi et al., 2013). […]
Alu cDNA detection by real-time PCR. […] Then samples were directly amplified by real-time quantitative PCR (7900 HT Fast Real-Time PCR system, Applied Biosystems, Foster City, Calif., United States of America) with Power SYBR Green Master Mix. […] The copy number of Alu cDNA was calculated using standard curves that were obtained using serial dilutions of the plasmids containing an Alu Y sequence. […]

[2] = system: Alu G25C RNA-induced RPE degeneration; assay: Alu G25C RNA-induced RPE degeneration in wild-type mice; assay type: in vivo, mouse; details: WT mice; subretinal Alu G25C RNA
[3] = system: reverse transcriptase activity of cytoplasmic fractions of F9 cells; assay: In vitro reverse transcriptase activity of cytoplasmic fractions (Alu RNA-templated, Alu-specific qPCR); assay type: biochemical, mouse
Procedure: In vitro reverse transcriptase (RT) activity. In vitro reverse transcriptase (RT) activity in nuclear and cytoplasmic protein fractions was assessed using an Alu RNA-templated reaction. The RT reaction was carried out in a 20 μl reaction mix containing Alu RNA template (10 ng); Alu primer ([…]); dNTPs mix; cytoplasmic or nuclear protein, and Quantiscript RT Buffer (Qiagen). The reaction mixture was incubated at 42° C. for 30 minutes. The resulting cDNA was quantified by qPCR using Alu RNA template-specific primers. The reaction to evaluate self-priming activity of Alu RNA was carried out in the absence of priming oligos in a 20 μl reaction mix containing: Alu RNA with 3′-U tail; dNTP mix; cytoplasmic protein from mouse RPE cells; and Quantiscript RT Buffer (Qiagen) as described above. The resulting cDNA product was quantified by qPCR using Alu RNA template-specific primers. Alu RNA tailed on the 3′ end with chain terminator dideoxy thymidine base (ddTTP) was generated using TdT (New England Biolabs (NEB)) according to the manufacturer's instructions. Alu RNA tailed on the 3′ end with chain terminator cordycepin tri-phosphate was generated using PAP (NEB) according to the manufacturer's instructions.

[4] = system: L1 ORF2p-facilitated Alu RNA-induced RPE degeneration; assay: Alu RNA-induced RPE degeneration in L1 ORF2-expressing Oryzomys palustris; assay type: in vivo; details: high dose (500 μmol)
Procedure: Assessment of RPE degeneration. Subretinal injections were performed as previously described (Kaneko et al., 2011; Tarallo et al., 2012; Kerur et al., 2013; Fowler et al., 2014; Kim et al., 2014). Seven days after subretinal injection, RPE health was assessed by fundus photography and immunofluorescence staining of zonula occludens-1 (ZO-1) on RPE flat mounts (whole mount of posterior eye cup containing RPE and choroid layers). Mouse RPE/choroid flat mounts were fixed with 2% paraformaldehyde, stained with rabbit polyclonal antibodies against mouse ZO-1 (1:100; Invitrogen Corp. Carlsbad, Calif., United States of America) and visualized with Alexa-594 (Invitrogen Corp.). […]
Quantification of RPE degeneration. Quantification of RPE degeneration was performed using two methodologies (binary assignment and cellular morphometry) as described previously (Kerur et al., 2018): Binary assignment (healthy versus unhealthy; Kerur et al., 2013; Fowler et al., 2014; Kim et al., 2014; Kerur et al., 2018) was independently performed by two blinded raters (inter-rater agreement=99.7%; Pearson r2=0.986, P<0.0001; Fleiss x=0.993, P<0.0001). […]

## O=C1Nc2ccc(Cl)cc2[C@@](C#CC2CC2)(C(F)(F)F)O1 [EFV, efavirenz]
[1]
  Formation of Alu cDNA following Alu RNA transfection: inhibited

## L1 siRNA: siRNA targeting L1; cholesterol-conjugated mouse L1 siRNA (SEQ ID NOs: 48 and 49) in vivo, human L1 siRNA sequences in human cells (chain 1 ACUAUUACUCUGAUACCTT; chain 2 UGUACUAAGGUCAAAUCTT; cholesterol conjugated, position not given here)
[2]
  Alu G25C RNA-induced RPE degeneration: prevented Alu G25C RNA-induced RPE degeneration
[3]
  Alu cDNA formation from Alu RNA (reverse transcriptase activity): reduced Alu cDNA production; also recorded: reduced Alu cDNA formation

## CC(C)Nc1cccnc1N1CCN(C(=O)c2cc3cc(NS(C)(=O)=O)ccc3[nH]2)CC1 [DLV, delavirdine]
[4]
  Alu RNA-induced RPE degeneration: blocked

Reference: patent US20210348164A1, “ENDOGENOUS CYTOPLASMIC ALU COMPLEMENTARY DNA IN AGE-RELATED MACULAR DEGENERATION” (University of Virginia Patent Foundation, priority 2018, published 2021)
